The values that follow come from patent US20180116209A1, “Liposome Formulations” (priority 2012, published 2018).

Series [1] relates to nematodes in a dehydrated state. The conditions noted are these: dry soils; cited from earlier work.
In another series the test system is Root-Knot larvae (J2). Briefly: Efficacy of nematicides (Oxamyl, Thiodicarb) in killing Root-Knot larvae (J2) in vitro. Type of series: in vivo, M. incognita. The following applies: compared with Oxamyl, 200 ug to 10 mg. The protocol: M. incognita eggs collected from tomato cultures by NaOC1 extraction (Hussey and Barker, 1973). Briefly, six to twelve week old infected tomato roots were cut into 1-2 segment. Root segments were shacked vigorously in 200 ml of a 0.5% Na O Cl solution for 4 min. Then, the Na O Cl solution was passed quickly through a 200-mesh (75-um), nested over a 500-mesh sieve to collect freed eggs. The a 500-mesh sieve with eggs was quickly placed under a stream of cold water to remove residual Na O Cl and rinsed several times. About 50 ml aqueous suspension of eggs was collected and number of eggs per unit volume will be counted. The egg suspension was allowed to sit at room temperature for 4 days. The hatching juveniles were collected and used in the subsequent experiments.
Determine the efficient concentration of nematicides (Oxamyl and Thidiocarb) that kill or suppress Root-Knot Larvae.
M. incognita eggs collected from tomato cultures by NaOC1 extraction (Hussey & Barker, Plant Disease Reporter. 57:1025-1028 (1973)). Egg suspension was incubated at room temperature until larvae were hatched (4-5 days). The juveniles (J2) were counted and evaluated for activity/mobility for the duration of the study. Four different concentrations of both nematicides (Oxamyl and Thiodicarb) were used to assess their efficacy in killing the nematodes. These were untreated control, 200 ug, 1 mg, 2 mg, and 10 mg. […]

The test system of a further series is plant roots. Briefly: Abamectin applied to soil prior to planting: gall formation, root necrosis, root length. Type of series: in vivo. As to the method:
Abamectin at 5 μg or 1 μg was directly applied to soil prior to planting. Alternatively abamectin was loaded into liposomes at either 5 μg or 1 μg and applied to soil prior to planting. Gall formation was detected. […] Therefore, liposomal abamectin formulations enhance root length as compared to non-liposomal abamectin formulations.

On to `CBr` [methyl bromide], for which the “tolerated dose compared to active forms in moist soil” value in series [1] is reported as 10 times the lethal dose.

Turning to `CS/C(C)=N\OC(=O)N(C)SN(C)C(=O)O/N=C(\C)SC` [Larvin (Thiodicarb), Thiodicarb], the “concentration needed to kill Root-Knot (J2)” value in the series with Root-Knot larvae (J2) was “required higher concentration to kill Root-Knot (J2)”.

With abamectin [non-liposomal abamectin], in the series with plant roots (1 μg applied to soil prior to planting, FIG. 4), the root necrosis result is “most root necrosis followed by the non-liposomal abamectin 1 μg application”. Further, the gall formation result in the series with plant roots (5 μg applied to soil prior to planting, FIG. 3) is given as “most gall formulation followed by the non-liposomal abamectin 5 μg application”.
